According to US8969397B2, “Systems and methods to treat pain locally” (Warsaw Orthopedic, Inc., priority 2004, dated 2015):

Key:
[1] = test system: Complete Freund's Adjuvant (CFA) inflammatory pain model; details: spinal administration; cited from earlier work
[2] = rat, in vivo, 100 mg/kg
[3] = test system: chronic constriction injury (CCl) of the sciatic nerve; assay: Thermal hyperalgesia test (paw withdrawal latency) after chronic constriction injury; format: in vivo, rat; details: for increase in paw withdrawal latency over baseline: 0.1 mg/kg; for mean paw withdrawal latency over baseline: Example 1, FIG. 2
Protocol: (§1) The behavioral animal model of chronic constriction injury (“CCl”) was chosen to evaluate the efficacy of NFκB inhibitors as a pain treatment. This model may mimic pain associated with sciatica in humans. To induce CCl, each animal was anesthetized by intraperitoneal (“i.p.”) injection of sodium pentobarbital at a dose of 60 mg/kg body weight. The animal's right common sciatic nerve was exposed and freed from adherent tissue at mid-thigh by separating the muscle (biceps femoris) by blunt dissection. Four loose ligatures were placed 1 mm apart, using chromic gut (4-0 absorbable suture, Jorgensen Laboratories Inc., Loveland, Colo.).
Animal behavioral testing was conducted on Days 7, 14 and 21 after CCl. In the thermal hyperalgesia test, animals were placed in the clear plastic chamber of a plantar analgesia instrument and allowed to acclimate to the environment for 15 minutes. After the acclimation period, a radiant (heat) beam source stimulus was applied to the CCl hind paw of each animal. The heat source device was set at an intensity of 50, and a maximum latency period of 15 seconds was set to prevent tissue damage according to the recommendations of the instrument manufacturer. If a paw withdrawal occurred within the 15 second period, an automated control interrupted both the stimulus and timer, turning off the radiant beam and recording the latency of time to paw withdrawal. Data was analyzed using a one-way analysis of variance at each test day.
Specifically, the same methods as described above were used except that sulfasalazine was administered at doses of 5 mg/kg; 1 mg/kg or 0.2 mg/kg.
Following the previous experiment, the effect of local doses of clonidine on pain sensitivity was explored. Animals were administered vehicle or test substances through a subcutaneously implanted Alzet pump. Again, the previously described methods for CCl and paw withdrawal latency measurements were followed except that in the presently described experiment animals received either vehicle control; 1 μg/hour Enbrel® as a positive control; 0.01 μg/hour clonidine; 0.05 μg/hour clonidine; or 0.25 μg/hour clonidine.

[4] = test system: chronic constriction injury (CCl) of the sciatic nerve; assay: Mechanical (tactile) allodynia, von Frey filaments, after chronic constriction injury; format: in vivo, rat; details: for pain sensitivity in the mechanical allodynia test, in words / decrease in pain sensitivity, mechanical allodynia test: Example 4, FIG. 5B; for sensitivity in mechanical allodynia paradigm compared to controls: Example 3, FIG. 4, Days 8, 15 and 22 following CCl
Protocol: as §1
The ability of sulfasalazine to inhibit pain was also evaluated using a different sensitivity measure following CCl, namely mechanical (or tactile) allodynia. In this study, mechanical allodynia was determined in reaction to probing with von Frey filaments (Stoelting, Wood Dale, Ill.). Mechanical sensitivity was measured on Days 8, 15 and 22 following CCl by determining the median 50% foot withdrawal threshold for von Frey filaments using the up-down method described in Chaplan et al. (J Neurosci Methods 1994; 54:55) which is incorporated by reference herein for its teachings regarding the up-down method. Rats were placed under a plastic cover (9×9×20 cm) on a metal mesh floor. The area tested was the middle glabrous area between the footpads of the plantar surface of the injured hind paw within the L4 innervation area. The plantar area was touched with a series of 9 von Frey hairs with approximately exponentially incremental bending forces (von Frey values: 3.61, 3.8, 4.0, 4.2, 4.41, 4.6, 4.8, 5.0, and 5.2; equivalent to: 0.41, 0.63, 1.0, 1.58, 2.51, 4.07, 6.31, 10, and 15.8 g). The von Frey hair was presented perpendicular to the plantar surface with sufficient force to cause slight bending and held for approximately 3 to 4 seconds. Abrupt withdrawal of the foot (paw flinching) was recorded as a response. Any rat showing a mechanical threshold of more than 3.24 g was eliminated from the study.

Compound: S=C(S)N1CCCC1 [PDTC, pyrollidinedithiocarbamate]
- mechanical allodynia [1]: significantly reduce
- thermal hyperalgesia [1]: significantly reduce
- drug toxicity [2]: removed from the study following the second day of testing due to drug toxicity
- paw withdrawal latencies versus control levels ([3]; Example 4, FIG. 5A, 20 mg/kg or 100 mg/kg, not as effective as other NFκB inhibiting compounds): did increase paw withdrawal latencies over control levels
- pain sensitivity in the mechanical allodynia test, in words ([4]; compared to animals receiving vehicle or Enbrel): showed some effect in decreasing pain sensitivity

Compound: Clc1cccc(Cl)c1N=C1NCCN1 [clonidine]
- increase in paw withdrawal latency over baseline ([3]; Example 4, FIG. 5A, test day 7): about 78%
- increase in paw withdrawal latency over baseline ([3]; Example 4, FIG. 5A, test day 21): ~61%
- increase in paw withdrawal latency over baseline ([3]; Example 4, FIG. 5A, test day 41): ~60%
- paw withdrawal latency over baseline ([3]; Example 5, FIG. 6, subcutaneously implanted Alzet pump, 0.01 μg/hour, test day 7): about 60%
- paw withdrawal latency over baseline ([3]; Example 5, FIG. 6, subcutaneously implanted Alzet pump, 0.01 μg/hour, test day 14): ~64%
- paw withdrawal latency over baseline ([3]; Example 5, FIG. 6, subcutaneously implanted Alzet pump, 0.01 μg/hour, test day 21): ~79%
- paw withdrawal latency over baseline ([3]; Example 5, FIG. 6, subcutaneously implanted Alzet pump, 0.05 μg/hour, test day 7): about 68%
- paw withdrawal latency over baseline ([3]; Example 5, FIG. 6, subcutaneously implanted Alzet pump, 0.05 μg/hour, test day 14): ~64%
- paw withdrawal latency over baseline ([3]; Example 5, FIG. 6, subcutaneously implanted Alzet pump, 0.05 μg/hour, test day 21): ~83%
- paw withdrawal latency over baseline ([3]; Example 5, FIG. 6, subcutaneously implanted Alzet pump, 0.25 μg/hour, test day 7): about 63%
- paw withdrawal latency over baseline ([3]; Example 5, FIG. 6, subcutaneously implanted Alzet pump, 0.25 μg/hour, test day 14): ~70%
- paw withdrawal latency over baseline ([3]; Example 5, FIG. 6, subcutaneously implanted Alzet pump, 0.25 μg/hour, test day 21): ~82%
- dose reduction without loss of efficacy ([3]; Example 5, local dosing by pump): 25 fold
- decrease in pain sensitivity, mechanical allodynia test ([4]; 0.1 mg/kg, day 8): about 58%
- decrease in pain sensitivity, mechanical allodynia test ([4]; 0.1 mg/kg, day 15): ~20%
- decrease in pain sensitivity, mechanical allodynia test ([4]; 0.1 mg/kg, day 22): ~48%
- pain sensitivity in the mechanical allodynia test, in words ([4]; low dose (0.02 mg/kg), effect not as strong): decreased sensitivity

Compound: O=C(O)c1cc(/N=N/c2ccc(S(=O)(=O)Nc3ccccn3)cc2)ccc1O [sulfasalazine]
- mean paw withdrawal latency over baseline ([3]; 5 mg/kg, test day 7): about 80%
- mean paw withdrawal latency over baseline ([3]; 5 mg/kg, test day 14): ~83%
- mean paw withdrawal latency over baseline ([3]; 5 mg/kg, test day 21): ~87%
- mean paw withdrawal latency over baseline ([3]; 50 mg/kg, test day 7): about 74%
- mean paw withdrawal latency over baseline ([3]; 50 mg/kg, test day 14): ~79%
- mean paw withdrawal latency over baseline ([3]; 50 mg/kg, test day 21): ~83%
- sensitivity in mechanical allodynia paradigm compared to controls [4]: decreased sensitivity

Compound: CC1=C(CC(=O)O)c2cc(F)ccc2/C1=C\c1ccc([S+](C)[O-])cc1 (centres unmarked) [sulindac]
- paw withdrawal latency over baseline ([3]; Example 4, FIG. 5A, 2 mg/kg, all three test days): about 65%
- paw withdrawal latency over baseline ([3]; Example 4, FIG. 5A, 10 mg/kg, test day 7): about 65%
- paw withdrawal latency over baseline ([3]; Example 4, FIG. 5A, 10 mg/kg, test day 21): about 75%
- paw withdrawal latency over baseline ([3]; Example 4, FIG. 5A, 10 mg/kg, test day 41): ~81%
- decrease in pain sensitivity, mechanical allodynia test ([4]; 2 mg/kg, day 8): about 66%
- decrease in pain sensitivity, mechanical allodynia test ([4]; 2 mg/kg, day 15): ~50%
- decrease in pain sensitivity, mechanical allodynia test ([4]; 2 mg/kg, day 22): ~35%
- decrease in pain sensitivity, mechanical allodynia test ([4]; 10 mg/kg, day 8): about 68%
- decrease in pain sensitivity, mechanical allodynia test ([4]; 10 mg/kg, day 15): about 58%
- decrease in pain sensitivity, mechanical allodynia test ([4]; 10 mg/kg, day 22): ~60%

Compound: Enbrel®
- mean paw withdrawal latency over baseline ([3]; 3 mg/kg, test day 7): about 60%
- mean paw withdrawal latency over baseline ([3]; 3 mg/kg, test day 14): ~63%
- mean paw withdrawal latency over baseline ([3]; 3 mg/kg, test day 21): ~75%
- paw withdrawal latency over baseline ([3]; Example 2, FIG. 3, positive control, test day 7): about 51%
- paw withdrawal latency over baseline ([3]; Example 2, FIG. 3, positive control, test day 14): ~63%
- paw withdrawal latency over baseline ([3]; Example 2, FIG. 3, positive control, test day 21): ~62%
- paw withdrawal latency over baseline, average ([3]; Example 4, FIG. 5A, 3 mg/kg, all three test days): about 51%
- paw withdrawal latency over baseline ([3]; Example 5, FIG. 6, subcutaneously implanted Alzet pump, 1 μg/hour, test day 7): about 45%
- paw withdrawal latency over baseline ([3]; Example 5, FIG. 6, subcutaneously implanted Alzet pump, 1 μg/hour, test day 14): about 60%
- paw withdrawal latency over baseline ([3]; Example 5, FIG. 6, subcutaneously implanted Alzet pump, 1 μg/hour, test day 21): ~71%
- sensitivity in mechanical allodynia paradigm compared to controls [4]: decreased sensitivity
